Holding throughout (type): cell-based
Test [1] has as its system Wnt activity. Description: Wnt activity screening assay, Sp5-Luc reporter gene in SW480 cells. As to conditions: Homo sapiens; for inhibition at 10 µM: SW480, read-out: percent inhibition at 10 μM; for pEC50: Sp5-Luc reporter, SW480 cells, overnight incubation. The gist of the method: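 Read-out is BrightGlo luminescence, normalized to DMSO-treated cells and fitted by four-parameter variable-slope regression for EC50. Reporter cells: SW480 colon carcinoma carrying a stable lentiviral Sp5-Luc construct with eight TCF/LEF sites, seeded 4,000/well in 1% FBS, incubated overnight at 37° C.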
Background: Reporter assays use an easily measured gene product as a stand-in for the process of interest.

The subject of test [2] is SW480 colon cancer cells. Briefly: Cell viability assay (CellTiter-Blue) in SW480 colon cancer cells. As to conditions: Homo sapiens; for pEC50: 96 h, SW480 cell viability, four days, CellTiter-Blue; for inhibition at 10 µM: SW480, read-out: percent inhibition at 10 μM. The gist of the method:
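Fluorescence from resazurin reduced to resorufin by metabolically active cells was the read-out, taken after ~3 h with CellTiter-Blue.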

For test [3], the system named is IL-6. Briefly: IL-6 inhibition in LPS-stimulated THP-1 cells (HTRF). As to conditions: Homo sapiens; for inhibition at 10 µM: THP-1, read-out: percent inhibition at 10 μM; for pEC50: THP-1 cells, LPS 500 ng/mL, 22 hours, IL6 HTRF. In a few lines: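 After 24 h in 1% FBS medium, cells had compound 2 h before 500 ng/mL LPS, then 22 h more at 37 °C. DMSO-normalized HTRF signal (665/620 nm ratio, anti-IL-6 antibody pair) was fitted with a variable-slope four-parameter model to give EC50.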
A general note: TR-FRET usually uses a lanthanide donor and a delayed reading to cut background.

Test [4] relates to primary human fibroblasts derived from IPF patients (LL29 cells). Briefly: Inhibition of the fibrotic process: αSMA staining in TGF-β1 treated LL29 fibroblasts. As to conditions: Fibroblast; for pEC50: 96 h, LL29 cells, TGF-β1 20 ng/mL, 4 days, % αSMA positive cells; for inhibition at 10 µM: read-out: percent inhibition at 10 μM. The gist of the method: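 Read-out after 4-day incubation: αSMA staining with 1 μM SYTOX green nuclear counterstain (30 min, room temperature). Cells were LL29 primary fibroblasts from IPF patients, in 1% FBS F12, exposed to TGF-β1 with test compound, referenced to TGF-β1/DMSO control wells.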

In test [5] the test system is primary human mesenchymal stem cells (hMSCs). Briefly: Induction of chondrogenesis in hMSCs (nodule count, Rhodamine B/Nile Red). As to conditions: 6 days; for EC50: concentration required to induce 50% levels of chondrogenesis vs TGF-β3, read-out: Conc (nM) of 50% TGF-β3 activity; for Emax: relative to TGF-β3 (10 ng/mL) positive control, read-out: Max. Activity as % TGF-β3 activity. The text has this: Representative compounds were screened using primary human mesenchymal stem cells (hMSCs) to determine their ability to induce chondrogenesis (process by which cartilage is developed).
Primary human mesenchymal stem cells (hMSCs) were purchased from Lonza (Walkersville, Md.) and expanded in Mesenchymal Stem Cell Growth Media (Lonza). Cells between passage 3 and 6 were used for the experiments.
To image chondrogenic nodules, the cells were fixed using 4% formaldehyde (Electron Microscopy Sciences), and stained with 2 μg/mL Rhodamine B (Sigma-Aldrich) and 20 μM Nile Red (Sigma-Aldrich) [Johnson K., et.al, A Stem Cell-Based Approach to Cartilage Repair, Science, (2012). […] Number of nodules in each well was normalized to the average of 3 DMSO treated wells on the same plate using Excel (Microsoft Inc.). The normalized averages (fold change over DMSO) of 3 replicate wells for each compound concentration were calculated. Due to solubility limitations of some of the compounds, curve fitting was incomplete leading to inaccurate EC50 determinations.
Using TGF-β3 as a positive control, the concentration of representative compounds required to induce 50% levels of chondrogenesis is reported. In addition, the maximum activity of each compound and the respective dose that each compound reached maximum chondrogenesis activity is reported.

pEC50: −log10 of the molar value.

Usually inhibition stands for the share of the control response that was lost under treatment. The term pEC50 denotes the EC50 on a negative log10 scale, so that one unit is a factor of ten. A low value points to a large EC50. As for `CN(C)Cc1cncc(-c2cc3c(-c4cc5c(-c6ccncc6)cncc5[nH]4)n[nH]c3cn2)c1` [Compound 125, N,N-Dimethyl-1-(5-(3-(4-(pyridin-4-yl)-1H-pyrrolo[2,3-c]pyridin-2-yl)-1H-pyrazolo[3,4-c]pyridin-5-yl)pyridin-3-yl)methanamine], the inhibition at 10 µM worked out at 18.7% in test [1], 5.3% in test [2], 0% in test [3] and 2.9% in test [4]. Also, the pEC50 in test [1], in test [2], in test [3] and in test [4] was under 5.00 each time. The EC50 in test [5] came out at 30 nM. For the same compound, the Emax in test [5] was 52%.

Take `Nc1cncc(-c2cc3c(-c4cc5c(N6CCCCC6)cncc5[nH]4)n[nH]c3cn2)c1` [Compound 171, 5-(3-(4-(Piperidin-1-yl)-1H-pyrrolo[2,3-c]pyridin-2-yl)-1H-pyrazolo[3,4-c]pyridin-5-yl)pyridin-3-amine]: the pEC50 in test [1] is 5.53; in test [2] it was 5.29; in test [3] it was 5.87; in test [4] it was 5.58. Further, in test [5], the EC50 was 30 nM. The Emax in test [5] amounted to 94%.

For the compound `CC(C)CC(=O)Nc1cncc(-c2cc3c(-c4cc5c(-c6cc(F)cc(CNS(C)(=O)=O)c6)cncc5[nH]4)n[nH]c3cn2)c1` [Compound 478, N-(5-(3-(4-(3-Fluoro-5-(methylsulfonamidomethyl)phenyl)-1H-pyrrolo[2,3-c]pyridin-2-yl)-1H-pyrazolo[3,4-c]pyridin-5-yl)pyridin-3-yl)-3-methylbutanamide], the inhibition at 10 µM in test [1] turned out to be 18.8%; in test [2], 4.1%; in test [3], 18.9%; in test [4] it was 37.6%. The pEC50 in test [1], in test [2], in test [3] and in test [4] was under 5.00 throughout. Further, the Emax in test [5] was 24%.

In the case of `CC(C)Nc1cncc(-c2cc3c(-c4cc5c(-c6cc(F)cc(CNS(C)(=O)=O)c6)cncc5[nH]4)n[nH]c3cn2)c1` [Compound 488, N-(3-Fluoro-5-(2-(5-(5-(isopropylamino)pyridin-3-yl)-1H-pyrazolo[3,4-c]pyridin-3-yl)-1H-pyrrolo[2,3-c]pyridin-4-yl)benzyl)methanesulfonamide], the pEC50 in test [1] is 5.37; in test [2], under 5.00; in test [3], under 5.00; in test [4], 5.59. Moreover, the inhibition at 10 µM in test [2] was 11%; in test [3] it was 46.8%. In addition, in test [5], the Emax was found to be 17%.

With `CS(=O)(=O)NCc1cc(F)cc(-c2cncc3[nH]c(-c4n[nH]c5cnc(-c6cncc(CN7CCCC7)c6)cc45)cc23)c1` [Compound 490, N-(3-Fluoro-5-(2-(5-(5-(pyrrolidin-1-ylmethyl)pyridin-3-yl)-1H-pyrazolo[3,4-c]pyridin-3-yl)-1H-pyrrolo[2,3-c]pyridin-4-yl)benzyl)methanesulfonamide], the inhibition at 10 µM in test [1] is 8.5%; in test [2] it was 17.4%; in test [3], 0%; in test [4], 21.4%. For the same compound, the pEC50 in test [1], in test [2], in test [3] and in test [4] was under 5.00 in each case. Further, the Emax in test [5] was found to be 8%.

Turning to `CS(=O)(=O)NCc1cc(F)cc(-c2cncc3[nH]c(-c4n[nH]c5cnc(-c6cncc(NC(=O)C7CCC7)c6)cc45)cc23)c1` [Compound 497, N-(5-(3-(4-(3-Fluoro-5-(methylsulfonamidomethyl)phenyl)-1H-pyrrolo[2,3-c]pyridin-2-yl)-1H-pyrazolo[3,4-c]pyridin-5-yl)pyridin-3-yl)cyclobutanecarboxamide], the inhibition at 10 µM in test [1] is 6.4%; in test [2], 14.1%; in test [3], 0%; in test [4], 27.8%. The pEC50 in test [1], in test [2], in test [3] and in test [4] was under 5.00 throughout. For the same compound, in test [5], the Emax was 15%.

The record behind these values is US10383861B2, “3-(1H-pyrrolo[2,3-C]pyridin-2-yl)-1H-pyrazolo[3,4-C]pyridines and therapeutic uses thereof” (Samumed, LLC, priority 2015, dated 2019).
